Experimental data: US9226503B2, “Composition and method for attraction of emerald ash borer Agrilus planipennis fairmaire (coleoptera: buprestidae)” (Her Majesty the Queen in Right of Canada, as represented by …, priority 2011, dated 2016)

Legend:
[1] = test system: A. planipennis antennae; assay: EAG dose-response study; design: species or system Agrilus planipennis; conditions: for EAG responsiveness of female antennae compared with male antennae: particularly at higher doses, P<0.0001; for EAG response of female antennae, (3Z)- vs (3E)-lactone: stimulus doses 0.01-100 μg, P=0.91
Source text: EAG analyses were made by methods and equipment generally described by Cossé & and Bartelt (2000). EAG connections were made by inserting a glass-pipette silver-grounding electrode into the back of an excised beetle head. A second glass-pipette silver-recording probe was placed in contact with the distal end of one antenna. Both pipettes were filled with Beadle-Ephrussi (Ephrussi and Beadle 1936) saline.
For the EAG-dose-response study, (3Z)- and (3E)-lactones were purified (99.9% purity by GC/MS) by high performance liquid chromatography (HPLC) using a Waters 515 pump, a Waters R401 refractive index detector, and a 25 cm by 0.46 cm i.d. silica column (Adsorbosphere Silica 5 μm, Alltech, Deerfield, Ill.), treated with silver nitrate as described by Heath and Sonnett (1980). Solvent was 8% ether in hexane. Ten micro liters of serially diluted solutions (methylene chloride) of synthetic (3Z)-lactone and (3E)-lactone were applied to filter paper strips (0.5 cm×5 cm, Whatman no. 1). The filter paper strips were placed in 14-cm-long Pasteur pipettes, hereafter referred to as stimulus cartridges, after 5 min at room temperature. Stimulus doses tested were 0.01, 0.1, 1, 10, and 100 μg. Male and female antennae were exposed to single 0.2s puffs of odor-bearing air at 5 ml/s by placing the tip of an stimulus cartridge into a hole of a glass tube (0.7 cm ID×20 cm), 10 cm from the outlet and 11 cm away from the antennal preparation. Airflow through the glass tube was humidified and set at 10 ml/s. Puff duration and airflow speeds were maintained by a stimulus flow controller (SFC-2, Syntech, Hilversum, The Netherlands). Stimuli cartridges were selected in random order, beginning with the lowest dosages and working upward to the highest dosages. Each puffed dosage was preceded and followed by a puff from a solvent blank cartridge (filter paper plus solvent). To compensate for possible deterioration of the antennal preparation, a standard control compound, geranyl acetone (1 μg dose) preceded dosages of stimuli compound. EAG amplitudes were normalized according to the responses to geranyl acetone by dividing the amplitude of the EAG generated by the test compounds by that of geranyl acetone. Dose-response series were replicated, using different antennal preparation for each replication, and the EAG responses were expressed as a percentage of the EAG responses to geranyl acetone. Each antennal preparation was tested with freshly prepared sets of stimuli cartridges. Male and female EAG responses were submitted to analysis of variance (ANOVA) using Statistica for Windows software (StatSoft Inc. Tulsa, Okla.)).

[2] = test system: A. planipennis; assay: Field trapping experiment 3 (2010), green sticky prism traps, Ontario and Michigan; format: in vivo, Agrilus planipennis; conditions: lactone alone
Description: Field trapping. Three trapping experiments were carried out in green ash plantations (F. pennsylvanica Marsch) with low-to-moderate A. planipennis populations about 40 km southeast of Sarnia, Ontario (42° 58′ 0 N, 82° 24′ 0 W) in 2008, 2009 and 2010. Trees at these sites were generally healthy in appearance with low or no signs of decline, and only a small number of trees had obvious signs/symptoms of infestation by A. planipennis. In Ontario sites, trees were 20-25 years old, 4-6 m tall, 10-15 cm in diameter, and spaced about 2 m apart within a row and 2.5 m between rows. In 2010, the trapping experiment was replicated at four sites in Michigan, USA, in addition to the sites in Ontario. Sites in Michigan were 10-100 years old, 10-30 m tall, 15-70 cm in diameter, and located in a mixed woodlot. […] Traps were checked every 2 weeks and A. planipennis were collected, counted and sexed. […]
The effect of each attractant on mean catch of female and male A. planipennis was analyzed independently using ANOVA and a randomized complete block design. Sites were analyzed separately in 2009 due to differences in sex ratios. In 2010, sites in Ontario were analyzed separately from those in Michigan due to the considerable differences in stand conditions and height of traps with respect to the ash canopy. […]

SMILES	EAG responsiveness of female antennae compared with male antennae [1]	EAG response of female antennae, (3Z)- vs (3E)-lactone [1]	trap captures compared to unbaited control, sites in Ontario ([2]; green traps in the canopy, Ontario, P<0.02)	trap catch compared to unbaited control ([2]; green traps, 2010, Ontario and Michigan)
O=C1C/C=C\CCCCCCCCO1 [(3Z)-lactone, (3Z)-dodecen-12-olide]	more responsive	did not respond differently	slight increase in trap captures	–
O=C1C/C=C/CCCCCCCCO1 [(3E)-lactone, (3E)-dodecen-12-olide]	more responsive	did not respond differently	–	did not affect trap catch
